Results on nine compounds are retold here after patent US12063914B2, “DNA sequence that increases odorant receptor representation in the olfactory system” (Research Foundation of the City University of New York, priority 2015, dated 2024).

Each structure is given as a SMILES string.

One data set addresses T1, M71 (Mus musculus, UniProt Q60893).
T1 construct: from ex vivo analysis of genetically defined M71 OSNs in gene-targeted mice; host or cells: dendritic knobs of M71-expressing olfactory sensory neurons from gene-targeted mice
T1 sequence (Q60893 1-309): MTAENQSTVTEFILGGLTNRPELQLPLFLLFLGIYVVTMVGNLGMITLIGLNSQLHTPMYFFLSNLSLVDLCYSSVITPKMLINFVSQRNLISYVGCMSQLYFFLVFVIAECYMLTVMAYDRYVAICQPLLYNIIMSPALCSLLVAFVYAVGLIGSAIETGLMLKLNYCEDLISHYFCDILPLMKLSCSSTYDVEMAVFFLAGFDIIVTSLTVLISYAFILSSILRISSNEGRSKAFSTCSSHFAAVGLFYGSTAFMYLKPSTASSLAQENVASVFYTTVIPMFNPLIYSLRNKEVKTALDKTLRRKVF
The conditions noted are these: previous ex vivo data; liquid phase; cited from earlier work.

Another data set addresses T2, human OR1A1 receptor (Homo sapiens, UniProt Q9P1Q5).
T2 construct: expressed in transfected cells; host or cells: olfactory sensory neurons of living 5•OR1A1Cβ hemizygous transgenic mice
T2 sequence (Q9P1Q5 1-309): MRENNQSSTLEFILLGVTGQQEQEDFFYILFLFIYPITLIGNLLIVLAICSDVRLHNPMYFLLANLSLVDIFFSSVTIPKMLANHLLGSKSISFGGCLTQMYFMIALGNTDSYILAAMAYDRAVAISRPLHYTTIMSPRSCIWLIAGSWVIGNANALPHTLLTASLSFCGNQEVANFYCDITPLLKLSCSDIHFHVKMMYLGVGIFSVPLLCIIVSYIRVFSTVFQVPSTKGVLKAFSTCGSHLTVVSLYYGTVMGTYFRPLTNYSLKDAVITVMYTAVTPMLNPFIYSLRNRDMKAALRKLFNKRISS
Nature of the data set: Two-bottle behavioral avoidance task with (−)-Carvone in 5•OR1A1Cβ mice. In kind it is in vivo, mouse. The source says: To further evaluate the versatility of this platform, the probability of choice of expression of a human OR was increased by cloning OR1A1 into the 5×21 M71 transgenic backbone. […] Again omp levels were not changed. Clearly, the representation of some ORs must be decreased to explain this equilibrium. In the 4•M71Cα homo animals, a mere 2-log increase in M71 RNA levels leads to a detectable 0.3-log change in threshold. Therefore, without wishing to be bound to any particular theory, it is believed that further increases in the neuronal representation of specific ORs may decrease detection thresholds even more. However, a delicate balance must exist between cell number and sensitivity. This hypothesis was tested using the established two-bottle behavioral avoidance task with the 5•OR1A1Cβ mice (FIG. 3B). Conditioning of 5•OR1A1Cβ hemi animals (n=12) was performed and their WT littermates (n=7) to water containing a 10-4 dilution of (−)-Carvone, a known OR1A1 ligand. For four consecutive days, animals were given the choice between plain water and water with decreasing (10-4, 10-6, 10-7 and 10-8) dilutions of (−) Carvone (FIG. 3C). Both groups (WT and Hemi) show clear aversion towards a 10^−4 dilution of (−)-Carvone (AVG PI WT=6.17% and AVG PI hemi=10.26%), reflecting successful conditioning. Both WT (AVG PI=55.52%) and Hemi (AVG PI=47.88%) cannot detect a 10^−8 dilution of (−)-Carvone. At 10^−6 and 10^−7 however, there is a clear difference in detection between WT and Hemi (10^−6: AVG PI WT=27.65% vs. AVG PI Hemi=11.41, Student's T-test p<0.01 and 10^−7: AVG PI WT=53.88% vs. AVG PI Hemi=30.24, Student's T-test p<0.05). […] These findings indicate that expressing OR1A1 in about 40% of the OSNs translates into a 2-log difference in (−)-Carvone detection thresholds.
Olfactory behavior test: A two-bottle discrimination test was performed as previously described. Since the mice are tested for the ability to detect a single odor in drinking water at increasingly lower concentrations, this discrimination assay is also considered a detection threshold test. Mice 8 weeks old were individually housed and given food ad libitum but restricted access to saccharin-phthalic acid solution (2.1×10^−2 M sodium saccharin and 10^−3M phthalic acid pH 6.5) for 1 h twice a day for two days before the assay begins. This ensures mice would commence drinking the solution during the conditioning. On day 3 (conditioning day) mice are exposed to sodium saccharine phthalic acid (SSPA) solution with 1 dilution of odorized water for 10 minutes. Immediately after, they are injected with lithium chloride intraperitoneally (15 μl/g body weight of a 0.6 M solution) to induce the aversive malaise and lethargy state. After two hours mice are returned to their home cage and given access to two bottles of drinking water; they are given the choice between SSPA solution containing a 10^−4 dilution of the odor versus the non-odorized SSPA solution. During the following 3 days, every 24 hours, the location of the bottles is reversed and the concentration of the odorized solution is decreased to 10^−6, 10^−7 and 0.5×10^−6, respectively. Every day both bottles are weighed to determine the amount of liquid consumed. A preference index was calculated as the amount of odorized solution consumed divided by the total amount of water solution consumed for each mouse for every 24 hour test period at each odor concentration. Student's t test was performed to test statistical significance, assuming two-tailed distribution and two-sample unequal variance. Values are mean±SEM and are plotted on a LOG scale.

For data set [1] the following is noted: at 25° C.; cited from earlier work.
The target in a further data set is T3, M71 OR (Mus musculus, UniProt Q60893).
T3 construct: the increase of OSNs expressing the M71 OR results in the coalescence of labeled axons; expressed in transfected cells; host or cells: olfactory sensory neurons of living transgenic mice (4•M71Cα, 5•M71Cα), made by pronuclear injection of the M71 minigene
T3 sequence (Q60893 1-309): T1 sequence (Q60893 1-309)
Nature of the data set: In vivo synaptophluorin (SpH) imaging of odor-evoked glomerular activity in 4•M71Cα mice. The settings on record: for glomerular activity (in vivo SpH imaging): 4•M71Cα animals, vapor phase, odor dilutions 0% to 15%; for average highest (dF/F)max: hemizygous 4•M71Cα animals, ACP at 1.77 uM, 24dMACP at 0.66 uM; for average highest (dF/F)max / highest efficacy [(dF/F)max]: 4MACP at 0.69 uM; for efficacy [(dF/F)max]: 0.71 uM; for efficacy [average (dF/F)max]: delivered at the same concentration, ˜0.70 uM; for response [(dF/F)max] at highest concentration delivered: 2.66 uM; for highest efficacy [(dF/F)max]: homozygous 4•M71Cα animals, ACP at 2.66 uM, 24dMACP at 0.46 uM. The source says:
Because the M71 OR is dorsally expressed in the olfactory bulb, any cloned OR using the M71 transgenic backbone will coalesce its axons onto dorsally located glomeruli, which makes them accessible for optical imaging. Optical imaging was therefore used to functionally characterize transgenic M71 projections in the OB. To examine their functional properties odor-evoked activity was imaged from the OBs of mice expressing the genetically encoded activity reporter SpH in all mature OSNs. Simultaneously recordings were obtained from mice that are either hemizygous or homozygous for 4•M71Cα (gene-targeted M71-GFP is out crossed) and heterozygous for SpH and identify red M71 glomeruli. Seven different M71-selective ligands were used from ex vivo analysis of genetically defined M71 OSNs in gene-targeted mice: three of these ligands produced responses by SpH imaging: Acetophenone (ACP), 4-methyl acetophenone (4MACP) and 2,4-dimethyl acetophenone (24dMACP) when delivered at different odor dilutions varying between 0% and 15%. The maximum change in fluorescence [(dF/F)max] per odor concentration was calculated for each compound over a 14 s trial period having a pre-odor (3 s), odor (4 s) and post-odor (4 s) acquisition. dF/F values for all glomeruli were calculated with a standardized 50 μm window, which is fully contained in all imaged glomeruli of both hemi and homo 4•M71Cα animals. (FIG. 2A, FIG. 2B and FIG. 2C: Each data point represents the average (dF/F). of 4-16 glomeruli imaged). […] All imaged mice are heterozygous for omp-SpH.
Olfactometry: Odors (purchased form Sigma Aldrich) were delivered using a custom built olfactometer controlled by an Arduino board with custom shields operating Teflon solenoids (Neptune Research) and connected to two Mass Flow Controllers (Alicat Scientific, Inc) to dilute the clean air (N2, max flow is 2 Lpm) and to dilute the odorized air (max flow is 300 SCCM). Nitrogen (N2) was used as the vapor carrier to avoid oxidation. Odor concentrations are expressed a % dilutions of saturated vapor and as molar saturated vapor concentration (μM s.v.), calculated using published vapor pressures at 25° Celsius (US EPA, Estimation Programs Interface Suite, v 4.0. Flow diluted odors were delivered at 2 Lpm mixed prior to the delivery site with air odorized with varying dilutions of odorant taken from the saturated headspace of pre-cleaned amber vials with white polypropylene closures and septum (J. G. Finneran) containing 99% pure odorants. To avoid contamination of the olfactometer, odorized air was never passed through the Teflon valves. Instead, odors were mixed with N2 in T-shaped mixing chambers (Neptune Research) and delivered to the animal's nose using an arduino controlled vacuum system. […] Output of the olfactometer was calibrated using the tracer odor Pinene and a photoionization detector (PID; Aurora Scientific).
In vivo SpH Imaging: Mice were anesthetized using Ketamine (100 mg/kg)/Xylazin (5 mg/kg) and maintained with Isoflurane (2.5% in 02) and immobilized using a stereotactic head holding device (Narishige, Inc.). Optical signals for SpH and mCherry were recorded using an ANDOR Neo 5.5 sCMOS camera connected to a NIKON AZ100 epifluorescence microscope (NIS Elements) with a 4× objective (numerical aperture 0.4). Excitation wavelengths of 475 nm for SpH and 575 nm for mCherry and emission of 520 nm for SpH and 635 nm for mCherry were used to obtain images of the dorsolateral bulb through thinned skull overlaying the bulb of a freely breathing animal. Each imaging trial consisted of a pre-odor (3 s), odor (4 s) and post-odor (4 s) acquisition, with a total acquisition time per trial of 14 s (including 3 s of valve switch delay). Using serial code, the arduino controlling the olfactometer was integrated in the NIS Elements software, so that the entire image acquisition sequence and flow-diluted odor delivery is controlled by the microscope software. […]

Turning to `CCc1occc(=O)c1O` [ethylmalthol], the “elicit a M71 response ex vivo” value on M71 is reported as “did”.
On to `NCC(=O)c1ccccc1` [2 amino acetophenone], for which, at M71, the “elicit a M71 response ex vivo” value is on record as “did”.
With `C=C(C)C1CC=C(C)C(=O)C1` (single isomer, unassigned; (-)) [(−)-Carvone], the “difference in detection thresholds” value at human OR1A1 receptor (5•OR1A1Cβ hemi vs WT) turned out to be 2 log. Moreover, the “AVG PI” value was determined as 10.26% on human OR1A1 receptor (5•OR1A1Cβ hemi, 10^−4 dilution); 11.41 at human OR1A1 receptor (5•OR1A1Cβ hemi, 10^−6 dilution); 30.24 on human OR1A1 receptor (5•OR1A1Cβ hemi, 10^−7 dilution); 47.88% on human OR1A1 receptor (5•OR1A1Cβ hemi, 10^−8 dilution); 6.17% at human OR1A1 receptor (WT littermates, 10^−4 dilution); 27.65% at human OR1A1 receptor (WT littermates, 10^−6 dilution). Further, the “AVG PI” value was 53.88% on human OR1A1 receptor (WT littermates, 10^−7 dilution) and 55.52% on human OR1A1 receptor (WT littermates, 10^−8 dilution).
For `O=Cc1ccccc1` [benzaldehyde], at M71, the “elicit a M71 response ex vivo” value was “did” and the “ex vivo responder grade” value is given as “low responder”.
With `COC(=O)c1ccccc1` [methylbenzoate], the “elicit a M71 response ex vivo” value on M71 is on record as “did not”.
Regarding `CC(C)[C@@H]1CC[C@@H](C)CC1=O` [menthone], the “elicit a M71 response ex vivo” value on M71 is recorded as “did not”.
In the case of `COc1ccc(C(C)=O)cc1` [4-metoxyacetophenone], at M71, the “elicit a M71 response ex vivo” value was “did” and the “ex vivo responder grade” value is given as “high responder”. For the same compound, the “saturated vapor pressure (Ps)” value in data set [1] is given as 0.0133 mmHg. Also, on M71 OR, the “glomerular activity (in vivo SpH imaging)” value (from here on “glomerular activity”) is “does not show glomerular activation”.
Consider `CC(=O)c1ccccc1` [ACP, Acetophenone], for which the “elicit a M71 response ex vivo” value on M71 was “did”. Also, in data set [1], the “saturated vapor pressure (Ps)” value was 0.3260 mmHg. On M71 OR, the “glomerular activity” value is reported as “observed”, the “average highest (dF/F)max” value is 3.49% and the “highest efficacy [(dF/F)max]” value came to 4.57%. In addition, on M71 OR (hemizygous animals), the “efficacy [(dF/F)max]” value is recorded as 0.73% and the “efficacy [average (dF/F)max]” value is given as 0.73%. Moreover, the “response [(dF/F)max] at highest concentration delivered” value on M71 OR (heterozygous (hemizygous) animals) was determined as 3.46%. Also, at M71 OR (homozygous animals), the “efficacy [(dF/F)max]” value amounted to 3.00% and the “response [(dF/F)max] at highest concentration delivered” value is reported as 4.57%.
With `CC(=O)c1ccc(C)cc1` [4MACP, 4-methyl acetophenone], the “elicit a M71 response ex vivo” value on M71 is reported as “did”. The “saturated vapor pressure (Ps)” value in data set [1] is 0.0849 mmHg. In addition, at M71 OR, the “glomerular activity” value is given as “observed”, the “average highest (dF/F)max” value was determined as 4.48% and the “highest efficacy [(dF/F)max]” value came to 3.82%. The “efficacy [average (dF/F)max]” value on M71 OR (hemizygous animals) is recorded as 4.48%. In addition, at M71 OR (homozygous animals), the “average efficacy (of all concentrations and odors)” value is recorded as 3.83%.
